Assay results published in ChEMBL document CHEMBL5252597, “Synthesis and biological evaluation of N-(3-fluorobenzyl)-4-(1-(methyl-d3)-1H-indazol-5-yl)-5-(6-methylpyridin-2-yl)-1H-imidazol-2-amine as a novel, potent ALK5 receptor inhibitor” (Bioorg Med Chem Lett, 2023).

How the values were obtained:
Cytochrome P450 2C9 = Cytochrome P450 2C9 (Homo sapiens, UniProt P11712); test: Inhibition of CYP2C9 (unknown origin); format: ADME
Cytochrome P450 2C19 = Cytochrome P450 2C19 (Homo sapiens, UniProt P33261); test: Inhibition of CYP2C19 (unknown origin); format: ADME
Cytochrome P450 1A2 [1] = target: T1, Cytochrome P450 1A2 (Homo sapiens, UniProt P05177); test: Inhibition of CYP1A2 (unknown origin); format: ADME
T1 sequence (P05177 whole entry): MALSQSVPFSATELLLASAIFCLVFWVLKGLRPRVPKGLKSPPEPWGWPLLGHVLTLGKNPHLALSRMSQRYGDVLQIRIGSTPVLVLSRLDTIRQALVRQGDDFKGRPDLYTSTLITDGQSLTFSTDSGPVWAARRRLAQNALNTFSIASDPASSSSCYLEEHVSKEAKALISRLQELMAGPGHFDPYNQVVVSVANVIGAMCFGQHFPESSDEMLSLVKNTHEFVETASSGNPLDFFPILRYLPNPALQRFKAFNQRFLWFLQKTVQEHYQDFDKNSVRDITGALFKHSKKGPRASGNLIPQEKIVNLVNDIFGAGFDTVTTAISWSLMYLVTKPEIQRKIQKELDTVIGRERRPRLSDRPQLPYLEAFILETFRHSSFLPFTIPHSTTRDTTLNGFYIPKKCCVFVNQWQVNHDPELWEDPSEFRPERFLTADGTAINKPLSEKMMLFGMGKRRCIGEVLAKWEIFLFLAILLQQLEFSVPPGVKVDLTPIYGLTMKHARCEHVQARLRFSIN

Cytochrome P450 3A4 = Cytochrome P450 3A4 (Homo sapiens, UniProt P08684); test: Inhibition of CYP3A4 (unknown origin); format: ADME
Cytochrome P450 2D6 = Cytochrome P450 2D6 (Homo sapiens, UniProt P10635); test: Inhibition of CYP2D6 (unknown origin); format: ADME
Activin receptor type-1 = target: T2, Activin receptor type-1 (Homo sapiens, UniProt Q04771); test: Inhibition of human ALK2 by […] assay
T2 sequence (Q04771 whole entry): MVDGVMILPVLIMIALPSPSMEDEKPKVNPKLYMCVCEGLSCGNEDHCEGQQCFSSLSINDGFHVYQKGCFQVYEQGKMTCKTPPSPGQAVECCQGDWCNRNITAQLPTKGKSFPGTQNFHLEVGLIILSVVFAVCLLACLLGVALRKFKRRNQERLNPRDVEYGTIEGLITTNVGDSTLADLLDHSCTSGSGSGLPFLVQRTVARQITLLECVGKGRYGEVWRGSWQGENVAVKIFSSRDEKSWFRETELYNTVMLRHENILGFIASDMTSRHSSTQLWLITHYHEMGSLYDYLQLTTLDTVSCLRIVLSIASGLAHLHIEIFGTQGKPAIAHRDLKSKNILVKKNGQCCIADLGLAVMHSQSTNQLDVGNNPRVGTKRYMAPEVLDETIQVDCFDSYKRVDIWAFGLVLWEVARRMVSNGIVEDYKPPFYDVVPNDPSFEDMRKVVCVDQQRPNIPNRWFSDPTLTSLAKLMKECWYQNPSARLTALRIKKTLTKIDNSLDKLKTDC

[2] = Stability of the compound in human plasma assessed as half life; format: ADME, cell-free
[3] = Tmax in BALB/c mouse at 10 mg/kg, po; format: ADME, organism-based; conditions: in vivo
[4] = Oral bioavailability in BALB/c mouse at 10 mg/kg; format: ADME, organism-based; conditions: in vivo
[5] = Inhibition of mouse CYP2D6; format: ADME
[6] = Total AUC in BALB/c mouse at 2 mg/kg, iv; format: ADME, organism-based; design: dose 2 mg/kg, route iv; conditions: in vivo
[7] = Stability of the compound in mouse plasma assessed as half life; format: ADME, cell-free
[8] = Metabolic stability in human liver microsomes assessed as intrinsic clearance; format: ADME, Microsome; conditions: read-out: CLH
[9] = Total AUC in BALB/c mouse at 10 mg/kg, po; format: ADME, organism-based; design: dose 10 mg/kg, route po; conditions: in vivo
[10] = Inhibition of mouse CYP2C9; format: ADME
[11] = Inhibition of mouse CYP3A4; format: ADME
[12] = Half life in BALB/c mouse at 10 mg/kg, po; format: ADME, organism-based; conditions: in vivo
[13] = Clearance in BALB/c mouse at 2 mg/kg, iv; format: ADME, organism-based; conditions: in vivo
[14] = Inhibition of mouse CYP2C8; format: ADME
[15] = Volume of distribution in BALB/c mouse at 2 mg/kg, iv; format: ADME, organism-based; conditions: in vivo
[16] = Half life in BALB/c mouse at 2 mg/kg, iv; format: ADME, organism-based; conditions: in vivo
Cytochrome P450 1A2 [17] = target: T3, Cytochrome P450 1A2 (Mus musculus, UniProt P00186); test: Inhibition of mouse CYP1A2; format: ADME
T3 sequence (P00186 whole entry): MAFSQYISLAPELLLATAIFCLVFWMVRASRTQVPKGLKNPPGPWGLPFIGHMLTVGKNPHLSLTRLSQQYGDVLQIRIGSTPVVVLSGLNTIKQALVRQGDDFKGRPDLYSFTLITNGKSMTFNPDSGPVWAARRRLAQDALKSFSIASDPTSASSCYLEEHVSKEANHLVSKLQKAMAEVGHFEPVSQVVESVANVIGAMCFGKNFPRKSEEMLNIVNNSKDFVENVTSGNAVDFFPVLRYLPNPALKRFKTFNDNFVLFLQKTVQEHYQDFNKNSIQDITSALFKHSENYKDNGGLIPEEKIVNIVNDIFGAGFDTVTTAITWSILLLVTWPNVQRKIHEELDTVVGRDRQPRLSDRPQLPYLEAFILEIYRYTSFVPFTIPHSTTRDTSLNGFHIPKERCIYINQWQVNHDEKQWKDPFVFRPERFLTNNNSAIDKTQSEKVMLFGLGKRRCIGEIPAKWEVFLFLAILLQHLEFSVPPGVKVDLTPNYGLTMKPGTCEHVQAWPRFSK

[18] = Cmax in BALB/c mouse at 10 mg/kg, po; format: ADME, organism-based; design: dose 10 mg/kg, route po; conditions: in vivo
TGF-beta receptor type-1 [19] = target: T4, TGF-beta receptor type-1 (Homo sapiens, UniProt P36897); test: Inhibition of ALK5 in human Hs-578T cells assessed as effect of TGF-beta-induced […] phosphorylation; format: cell-based
T4 sequence (P36897 whole entry): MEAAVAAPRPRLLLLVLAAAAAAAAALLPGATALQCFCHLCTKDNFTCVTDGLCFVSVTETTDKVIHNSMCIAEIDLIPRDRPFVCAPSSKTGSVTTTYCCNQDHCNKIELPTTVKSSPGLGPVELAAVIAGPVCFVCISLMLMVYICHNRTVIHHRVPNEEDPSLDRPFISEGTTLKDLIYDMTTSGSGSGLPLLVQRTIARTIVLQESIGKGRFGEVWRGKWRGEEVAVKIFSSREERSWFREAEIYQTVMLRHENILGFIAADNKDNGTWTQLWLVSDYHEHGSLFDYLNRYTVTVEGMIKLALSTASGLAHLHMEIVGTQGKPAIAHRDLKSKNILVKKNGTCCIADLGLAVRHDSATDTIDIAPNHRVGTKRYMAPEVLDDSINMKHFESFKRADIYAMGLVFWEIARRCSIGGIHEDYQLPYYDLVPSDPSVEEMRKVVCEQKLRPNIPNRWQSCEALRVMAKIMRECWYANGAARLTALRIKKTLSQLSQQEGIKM

TGF-beta receptor type-1 [20] = target: T4, TGF-beta receptor type-1; test: Inhibition of human ALK5 by Kinase Glo luminescence assay

Sequence of Cytochrome P450 2C19 (P33261 whole entry): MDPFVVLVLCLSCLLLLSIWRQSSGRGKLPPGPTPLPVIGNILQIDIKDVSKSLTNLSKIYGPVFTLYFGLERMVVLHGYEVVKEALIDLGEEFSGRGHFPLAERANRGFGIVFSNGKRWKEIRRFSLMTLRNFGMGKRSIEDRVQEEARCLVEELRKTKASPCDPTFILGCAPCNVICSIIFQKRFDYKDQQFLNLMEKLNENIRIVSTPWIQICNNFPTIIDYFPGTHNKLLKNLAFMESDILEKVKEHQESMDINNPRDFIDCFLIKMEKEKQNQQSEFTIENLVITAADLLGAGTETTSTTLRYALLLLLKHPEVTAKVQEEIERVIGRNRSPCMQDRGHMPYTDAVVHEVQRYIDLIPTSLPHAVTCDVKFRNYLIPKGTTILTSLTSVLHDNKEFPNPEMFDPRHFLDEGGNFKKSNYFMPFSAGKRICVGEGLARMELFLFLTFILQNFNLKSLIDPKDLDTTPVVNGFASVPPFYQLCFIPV
Sequence of Cytochrome P450 2C9 (P11712 whole entry): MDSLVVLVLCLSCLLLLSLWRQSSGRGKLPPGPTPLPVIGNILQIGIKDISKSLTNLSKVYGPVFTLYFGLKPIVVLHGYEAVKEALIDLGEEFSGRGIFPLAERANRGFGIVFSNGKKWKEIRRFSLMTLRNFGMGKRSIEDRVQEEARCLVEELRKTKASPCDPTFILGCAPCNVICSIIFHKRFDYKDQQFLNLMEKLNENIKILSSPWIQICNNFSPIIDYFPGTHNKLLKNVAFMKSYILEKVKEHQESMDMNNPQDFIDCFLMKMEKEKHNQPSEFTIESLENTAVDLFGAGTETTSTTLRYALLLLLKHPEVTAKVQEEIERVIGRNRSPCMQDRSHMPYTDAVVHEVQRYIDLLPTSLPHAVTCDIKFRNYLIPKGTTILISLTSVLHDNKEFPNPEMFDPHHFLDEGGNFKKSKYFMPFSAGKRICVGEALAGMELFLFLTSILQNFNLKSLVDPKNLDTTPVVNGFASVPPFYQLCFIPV
Sequence of Cytochrome P450 2D6 (P10635 whole entry): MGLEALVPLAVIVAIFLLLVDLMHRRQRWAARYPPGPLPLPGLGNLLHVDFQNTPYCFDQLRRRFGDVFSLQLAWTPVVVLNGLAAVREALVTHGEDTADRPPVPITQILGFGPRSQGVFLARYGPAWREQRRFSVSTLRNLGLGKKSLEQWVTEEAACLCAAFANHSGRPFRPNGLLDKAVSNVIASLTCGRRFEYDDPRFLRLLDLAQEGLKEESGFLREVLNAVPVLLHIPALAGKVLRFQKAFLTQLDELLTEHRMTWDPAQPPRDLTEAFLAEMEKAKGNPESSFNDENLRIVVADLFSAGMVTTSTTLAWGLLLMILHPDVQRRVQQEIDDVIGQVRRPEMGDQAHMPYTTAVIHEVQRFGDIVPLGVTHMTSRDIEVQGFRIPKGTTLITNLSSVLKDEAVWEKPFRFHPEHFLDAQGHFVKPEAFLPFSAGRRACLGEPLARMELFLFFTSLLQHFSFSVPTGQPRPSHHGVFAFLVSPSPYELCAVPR
Sequence of Cytochrome P450 3A4 (P08684 whole entry): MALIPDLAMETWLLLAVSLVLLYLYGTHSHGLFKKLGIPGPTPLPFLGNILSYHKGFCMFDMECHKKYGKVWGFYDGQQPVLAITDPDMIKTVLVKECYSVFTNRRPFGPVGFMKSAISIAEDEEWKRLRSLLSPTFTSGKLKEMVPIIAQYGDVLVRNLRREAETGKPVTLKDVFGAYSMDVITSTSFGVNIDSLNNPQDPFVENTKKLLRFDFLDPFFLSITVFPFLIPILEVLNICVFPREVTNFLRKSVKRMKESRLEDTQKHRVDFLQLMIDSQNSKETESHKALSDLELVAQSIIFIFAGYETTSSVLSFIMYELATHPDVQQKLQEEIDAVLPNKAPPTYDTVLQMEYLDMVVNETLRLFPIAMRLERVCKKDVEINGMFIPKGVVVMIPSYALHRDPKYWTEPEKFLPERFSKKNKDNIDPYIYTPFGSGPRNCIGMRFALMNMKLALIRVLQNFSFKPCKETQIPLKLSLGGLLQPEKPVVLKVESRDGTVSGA

SMILES	IC50 (Cytochrome P450 2C9) [µM]	IC50 (Cytochrome P450 2C19) [µM]	IC50 (Cytochrome P450 1A2 [1]) [µM]	IC50 (Cytochrome P450 3A4) [µM]	IC50 (Cytochrome P450 2D6) [µM]	IC50 (Activin receptor type-1) [µM]	further results
Cc1cccc(-c2[nH]c(NCc3ccc(F)cc3F)nc2-c2ccc3[nH]ncc3c2)n1	0.5	3.3	8.7	> 10	5.8	–	–
Cc1cccc(-c2[nH]c(NCc3ccc(Cl)c(Cl)c3)nc2-c2ccc3[nH]ncc3c2)n1	> 10	> 10	> 10	> 10	> 10	–	–
Cc1cccc(-c2[nH]c(NCc3cccc(F)c3)nc2-c2ccc3[nH]ncc3c2)n1	1.1	8.6	> 10	> 10	6.7	> 10	–
Cc1cccc(-c2[nH]c(NCc3cccc(F)c3F)nc2-c2ccc3[nH]ncc3c2)n1	0.6	4.3	> 10	> 10	6.9	–	–
Cc1cccc(-c2[nH]c(NCc3ccc(F)c(F)c3)nc2-c2ccc3[nH]ncc3c2)n1	0.4	4.3	8.6	> 10	4.1	–	–
Cc1cccc(-c2[nH]c(NCc3ccccc3F)nc2-c2ccc3[nH]ncc3c2)n1	1.4	7.2	> 10	> 10	8.8	–	–
Cc1cccc(-c2[nH]c(NCc3ccc(Cl)cc3F)nc2-c2ccc3[nH]ncc3c2)n1	0.4	3.1	8.8	8.7	6.7	–	–
CCn1ncc2cc(-c3nc(NCc4cccc(F)c4)[nH]c3-c3cccc(C)n3)ccc21	–	–	–	–	–	> 10	–
Cc1cccc(-c2[nH]c(NCc3cccc(Cl)c3F)nc2-c2ccc3[nH]ncc3c2)n1	0.5	3.6	> 10	8	4.8	–	–
[2H]C([2H])([2H])n1ncc2cc(-c3nc(NCc4cccc(F)c4)[nH]c3-c3cccc(C)n3)ccc21	–	–	–	–	–	–	half-life [2]: > 2 h; Tmax [3]: 0.4 h; bioavailability [4]: 67.6%; IC50 [5]: 20.5 µM; AUC [6]: 1.17 µg·h/mL; half-life [7]: > 2 h; microsomal CLint [8]: 23.1 µL/min/mg; AUC [9]: 3.94 µg·h/mL; IC50 [10]: 22.1 µM; IC50 [11]: 16 µM; half-life [12]: 1.6 h; clearance [13]: 1.74 L/h/kg; IC50 [14]: 38.7 µM; Vd [15]: 3.8 L/kg; half-life [16]: 1.5 h; IC50 (Cytochrome P450 1A2 [17]): 67 µM; Cmax [18]: 1.72 µg/mL
Cc1cccc(-c2[nH]c(NCc3cccc(F)c3)nc2-c2ccc3c(cnn3C)c2)n1	> 10	> 10	> 10	> 10	> 10	> 10	half-life [2]: > 2 h; Tmax [3]: 0.4 h; bioavailability [4]: 69.6%; IC50 [5]: 26.2 µM; AUC [6]: 0.87 µg·h/mL; half-life [7]: > 2 h; microsomal CLint [8]: 29.8 µL/min/mg; AUC [9]: 3.03 µg·h/mL; IC50 [10]: 27.8 µM; IC50 [11]: 20.5 µM; half-life [12]: 1.6 h; clearance [13]: 2.3 L/h/kg; IC50 [14]: 34.1 µM; Vd [15]: 5.1 L/kg; half-life [16]: 1.6 h; IC50 (Cytochrome P450 1A2 [17]): 71.5 µM; Cmax [18]: 1.53 µg/mL
Cc1cccc(-c2[nH]c(NCc3cccc(F)c3)nc2-c2ccc3c(cnn3S(C)(=O)=O)c2)n1	> 10	> 10	9.4	> 10	> 10	> 10	IC50 (TGF-beta receptor type-1 [19]): > 0.3 µM
Cc1cccc(-c2[nH]c(NCc3ccccc3F)nc2-c2ccc3[nH]ccc3c2)n1	–	–	–	–	–	–	IC50 (TGF-beta receptor type-1 [20]): > 10 µM; IC50 (TGF-beta receptor type-1 [19]): > 0.3 µM
Cc1cccc(-c2[nH]c(NCc3cccc(F)c3)nc2-c2ccc3c(cnn3C(F)F)c2)n1	> 10	> 10	8.5	> 10	> 10	> 10	–
